Measurements reported in patent US10065990B2, “Cyclic peptide compound, and preparation method, pharmaceutical composition and use thereof” (HANGZHOU GUANYU BIO-MEDICAL CO., LTD, priority 2013, dated 2018).
pIC50: −log10 of the molar value. Where two headings read alike, the source gives them in different places.

Key:
[1] = test system: Bel-7402 (human hepatoma cells); assay: MTT cancer cell growth inhibition; format: cell-based; details: Homo sapiens, Bel-7402, 72 h, MTT, 72 hours incubation, Bel-7402 cells; read-out: GI50 Bel-7402
Procedure, shortened: (§1)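 Read-out was formazan absorbance at 570 nm after a 4 h MTT step and DMSO solubilisation, converted to cell viability and fitted for GI50. Beforehand, cells (1500/well, overnight attachment) were treated with compound at 10^−5 to 10^−10 M for 72 h at 37° C.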

[2] = test system: K562 (human leukemia cells); assay: MTT cancer cell growth inhibition; format: cell-based; details: Homo sapiens, K562, 72 h, MTT, 72 hours incubation, K562 cells; read-out: GI50 K562
Procedure, shortened: as §1

[3] = test system: MDA-MB-231 (breast cancer cells); assay: MTT cancer cell growth inhibition; format: cell-based; details: Homo sapiens, MDA-MB-231, 72 h, read-out: GI50 MDA-MB-231, MTT, 72 hours incubation, MDA-MB-231 cells
Procedure, shortened: as §1

[4] = test system: Hela (human cervical cancer cells); assay: MTT cancer cell growth inhibition; format: cell-based; details: Homo sapiens, HeLa, 72 h, MTT, 72 hours incubation; read-out: GI50 Hela
Procedure, shortened: as §1

[5] = test system: lncap (prostate cancer cells); assay: MTT cancer cell growth inhibition; format: cell-based; details: Homo sapiens, LNCaP, 72 h, MTT, 72 hours incubation; read-out: GI50 lnca
Procedure, shortened: as §1

[6] = test system: KBM-5 (human chronic myelogenous leukemia); assay: MTT cancer cell growth inhibition; format: cell-based; details: Homo sapiens, KBM5, 72 h, MTT, 72 hours incubation, KBM-5 cells; read-out: GI50 KBM-5
Procedure, shortened: as §1

[7] = test system: N-87 (human gastric cancer cells); assay: MTT cancer cell growth inhibition; format: cell-based; details: Homo sapiens, 72 h, MTT, 72 hours incubation, N-87 cells; read-out: GI50 N-87
Procedure, shortened: as §1

[8] = test system: HT1080 (human fibrosarcoma cells); assay: MTT cancer cell growth inhibition; format: cell-based; details: Homo sapiens, HT-1080, 72 h, MTT, 72 hours incubation; read-out: GI50 HT1
Procedure, shortened: as §1

[9] = test system: KBM5-T315I (human chronic myelogenous leukemia); assay: MTT cancer cell growth inhibition; format: cell-based; details: Homo sapiens, 72 h, MTT, 72 hours incubation, KBM5-T315I cells; read-out: GI50 KBM5-T315I
Procedure, shortened: as §1

[10] = test system: H1975 (non-small cell lung adenocarcinoma); assay: MTT cancer cell growth inhibition; format: cell-based; details: Homo sapiens, NCI-H1975, 72 h, MTT, 72 hours incubation, H1975 cells; read-out: GI50 H1975
Procedure, shortened: as §1

[11] = test system: U937 (human leukemia cells); assay: MTT cancer cell growth inhibition; format: cell-based; details: Homo sapiens, U-937, 72 h, MTT, 72 hours incubation; read-out: GI50 U93
Procedure, shortened: as §1

[12] = test system: SGC-7901 (human gastric cancer cells); assay: MTT cancer cell growth inhibition; format: cell-based; details: Homo sapiens, SGC-7901, 72 h, MTT, 72 hours incubation, SGC-7901 cells; read-out: GI50 SGC-7901
Procedure, shortened: as §1

[13] = test system: MCF-7 (human breast cancer cells); assay: MTT cancer cell growth inhibition; format: cell-based; details: Homo sapiens, MCF7, 72 h, 72 hours incubation, read-out: GI50 MCF
Procedure, shortened: as §1

[14] = test system: DU145 (human prostate cancer cells); assay: MTT cancer cell growth inhibition; format: cell-based; details: Homo sapiens, DU-145, 72 h, MTT, 72 hours incubation; read-out: GI50 Du1
Procedure, shortened: as §1

[15] = test system: Huh-7 (human hepatoma cells); assay: MTT cancer cell growth inhibition; format: cell-based; details: Homo sapiens, Huh-7, 72 h, MTT, 72 hours incubation, Huh-7 cells; read-out: GI50 Huh-7
Procedure, shortened: as §1

[16] = test system: A549 (human lung cancer cells); assay: MTT cancer cell growth inhibition; format: cell-based; details: Homo sapiens, A549, 72 h, MTT, 72 hours incubation; read-out: GI50 A54
Procedure, shortened: as §1

[17] = test system: HCC827 (human non-small cell lung cancer cells); assay: MTT cancer cell growth inhibition; format: cell-based; details: Homo sapiens, HCC827, 72 h, MTT, 72 hours incubation, HCC827 cells; read-out: GI50 HCC827
Procedure, shortened: as §1

[18] = test system: MOLT-4 (human acute lymphoblastic leukemia cells); assay: MTT cancer cell growth inhibition; format: cell-based; details: Homo sapiens, MOLT-4, 72 h, MTT, 72 hours incubation; read-out: GI50 Mol
Procedure, shortened: as §1

HDAC3 = HDAC3 (Homo sapiens, UniProt O15379); assay: HDAC biochemical activity measurement (fluorescent substrate deacetylation);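 note: fluorogenic acetyl-lysine substrate (20 µM) deacetylated by HDAC3, then developer added for 15 min at room temperature, release of fluorophore read at excitation 360 nm, emission 460 nm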
Chain of HDAC3 (O15379 whole entry, species assumed): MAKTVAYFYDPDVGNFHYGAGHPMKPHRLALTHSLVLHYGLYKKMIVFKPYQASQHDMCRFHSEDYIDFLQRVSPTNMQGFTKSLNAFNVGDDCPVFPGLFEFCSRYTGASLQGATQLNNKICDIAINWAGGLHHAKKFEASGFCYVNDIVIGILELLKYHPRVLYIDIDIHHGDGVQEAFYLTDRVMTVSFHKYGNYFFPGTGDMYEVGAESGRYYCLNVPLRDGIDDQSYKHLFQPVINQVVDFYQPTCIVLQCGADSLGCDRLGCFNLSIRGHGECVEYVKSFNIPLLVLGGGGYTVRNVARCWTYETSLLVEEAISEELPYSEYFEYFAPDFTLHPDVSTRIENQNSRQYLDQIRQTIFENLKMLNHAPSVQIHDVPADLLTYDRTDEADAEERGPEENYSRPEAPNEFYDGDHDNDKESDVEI
Chain of HDAC3 (Q9Y618 395-489 partner limits assumed, species assumed): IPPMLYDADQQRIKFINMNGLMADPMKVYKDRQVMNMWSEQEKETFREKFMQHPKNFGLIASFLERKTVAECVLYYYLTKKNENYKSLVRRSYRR

HDAC11 = target: T1, HDAC11 (Homo sapiens, UniProt Q96DB2); assay: as above;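 note: HDAC11 enzyme acting on an acetyl-lysine fluorogenic substrate, then a developer frees the fluorophore, read at excitation 360 nm and emission 460 nm, IC50 over a compound dilution series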
T1 sequence (Q96DB2 1-347): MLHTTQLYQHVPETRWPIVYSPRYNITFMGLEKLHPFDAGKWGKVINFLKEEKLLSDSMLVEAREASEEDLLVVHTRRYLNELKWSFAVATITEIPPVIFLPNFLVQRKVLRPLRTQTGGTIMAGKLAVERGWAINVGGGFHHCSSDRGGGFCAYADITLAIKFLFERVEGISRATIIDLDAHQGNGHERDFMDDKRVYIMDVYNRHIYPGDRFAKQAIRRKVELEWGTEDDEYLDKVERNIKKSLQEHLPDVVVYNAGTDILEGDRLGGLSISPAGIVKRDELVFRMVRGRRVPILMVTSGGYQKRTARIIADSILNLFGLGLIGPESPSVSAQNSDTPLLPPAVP
Experimental: The chemical activity of the compound is determined according to the degree of deacetylation inhibition of the HDAC enzyme. This experiment measured the degree of deacetylation related to tumor proliferation and metastasis of HDAC1, HDAC2, HDAC3, HDAC8, HDAC11 five subtypes HDAC enzymes. After the substrate containing an acetylated lysine side chain and HDAC enzyme are labeled with a fluorescent label, the fluorescent substrate is de acetyl. The fluorescent labeled substrate is cleaved by the enzyme, and the fluorescent substance is released, which generates 460 nm emission light under the excitation of 360 nm light.
HDAC substrate was diluted with reaction buffer to 200M (reaction concentration of 20M), the HDAC enzyme was diluted to the appropriate concentration, then added different concentrations of the test compounds and acted at 37° C. 30 minutes, and then added the same volume of 2-times concentration substrate developing solution (developer), incubated at room temperature for 15 minutes.

HDAC1 = HDAC1 (Homo sapiens, UniProt Q13547); assay: as above
Chain of HDAC1 (Q13547 whole entry, species assumed): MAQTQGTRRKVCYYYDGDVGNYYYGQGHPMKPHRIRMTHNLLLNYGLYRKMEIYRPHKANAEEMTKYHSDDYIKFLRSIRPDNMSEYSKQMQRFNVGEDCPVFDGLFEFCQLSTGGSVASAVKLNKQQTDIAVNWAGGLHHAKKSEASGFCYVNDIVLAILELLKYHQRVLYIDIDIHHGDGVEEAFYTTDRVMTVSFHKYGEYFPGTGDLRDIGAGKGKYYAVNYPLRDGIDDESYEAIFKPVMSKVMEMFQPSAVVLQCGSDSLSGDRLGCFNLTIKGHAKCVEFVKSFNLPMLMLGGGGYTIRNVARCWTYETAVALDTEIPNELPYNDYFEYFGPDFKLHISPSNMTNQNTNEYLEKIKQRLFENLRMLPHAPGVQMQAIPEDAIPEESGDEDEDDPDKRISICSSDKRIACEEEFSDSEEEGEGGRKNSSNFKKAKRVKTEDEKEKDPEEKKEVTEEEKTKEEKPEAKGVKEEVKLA

[19] = HDAC1, 37° C. 30 minutes, read-out: IC50 HDAC1
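Throughout, for IC50 HDAC1, C (six-membered ring with substituents): fluorogenic acetyl-lysine substrate (20 µM) deacetylated by HDAC1, then developer releases fluorophore read at 360 nm excitation and 460 nm emission, inhibitor incubated 30 min at 37 °C.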
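Throughout, for IC50 HDAC1: fluorogenic acetyl-lysine substrate (20 µM) deacetylated by HDAC1, then developer releases fluorophore read at 360 nm excitation and 460 nm emission, inhibitor incubated 30 min at 37 °C.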

GI50 [1]	GI50 [2]	GI50 [3]	GI50 [4]	GI50 [5]	GI50 [6]	GI50 [7]	GI50 [8]	GI50 [9]	GI50 [10]	GI50 [11]	GI50 [12]	GI50 [13]	GI50 [14]	GI50 [15]	GI50 [16]	GI50 [17]	GI50 [18]	pIC50 (HDAC1; [19])	pIC50 (HDAC3)	SMILES	further results
51 nM	29 nM	34 nM	30 nM	30 nM	38 nM	35 nM	50 nM	34 nM	43 nM	40 nM	59 nM	30 nM	20 nM	34 nM	50 nM	51 nM	30 nM	7.43	–	C/C=C1\NC(=O)c2nc(ccc2F)CNC(=O)C[C@@H](/C=C/CCSC(C)=O)OC(=O)[C@H](Cc2ccc(O)cc2)NC1=O [Compound 81]	pIC50 (HDAC3; read-out: IC50 HDAC3, HDAC3, 37° C. 30 minutes): 7.80; pIC50 (HDAC11; read-out: IC50 HDAC11, HDAC11, 37° C. 30 minutes): 7.02; pIC50 (HDAC1; Table 3, column C, read-out: IC50 HDAC1, C (six-membered ring with substituents)): 7.43
81 nM	36 nM	29 nM	40 nM	20 nM	49 nM	26 nM	80 nM	38 nM	52 nM	50 nM	48 nM	30 nM	30 nM	29 nM	40 nM	81 nM	20 nM	7.03	7.28	C/C=C1\NC(=O)c2cc(F)cc(n2)CNC(=O)C[C@@H](/C=C/CCSC(C)=O)OC(=O)[C@H](Cc2ccc(O)cc2)NC1=O [Example 82]	pIC50 (HDAC11): 7.04
83 nM	42 nM	25 nM	50 nM	20 nM	52 nM	52 nM	80 nM	37 nM	35 nM	30 nM	601 nM	30 nM	40 nM	25 nM	600 nM	83 nM	20 nM	7.03	7.59	C/C=C1\NC(=O)c2ccc(F)c(n2)CNC(=O)C[C@@H](/C=C/CCSC(C)=O)OC(=O)[C@H](CCCCNC(=O)OCC2c3ccccc3-c3ccccc32)NC1=O [Example 77]	pIC50 (HDAC11): 7.06
